The target of test [1] is MAP4K4 (HGK) (Homo sapiens, UniProt O95819). The test can be described thus: HGK biochemical assay (AlphaScreen). Particulars: 10 μM ATP. The protocol: Substrate was 10 nM biotin-ERM (T567/T564/T558, Cell Signaling, Inc., cat#1344). MAP4K4 kinase was at 0.5 ng per sample.
(Alpha assays give light when donor and acceptor beads are brought close together.)

The target of test [2] is c-kit (Homo sapiens, UniProt P10721). The test can be described thus: c-kit assays of Examples 40 and 41 (AlphaScreen kinase assays at 10 and 100 μM ATP, 33P-ATP filter assay, M-07e SCF-stimulated proliferation and phosphorylation).
Sequence of c-kit (P10721 with tags, fused parts or gaps): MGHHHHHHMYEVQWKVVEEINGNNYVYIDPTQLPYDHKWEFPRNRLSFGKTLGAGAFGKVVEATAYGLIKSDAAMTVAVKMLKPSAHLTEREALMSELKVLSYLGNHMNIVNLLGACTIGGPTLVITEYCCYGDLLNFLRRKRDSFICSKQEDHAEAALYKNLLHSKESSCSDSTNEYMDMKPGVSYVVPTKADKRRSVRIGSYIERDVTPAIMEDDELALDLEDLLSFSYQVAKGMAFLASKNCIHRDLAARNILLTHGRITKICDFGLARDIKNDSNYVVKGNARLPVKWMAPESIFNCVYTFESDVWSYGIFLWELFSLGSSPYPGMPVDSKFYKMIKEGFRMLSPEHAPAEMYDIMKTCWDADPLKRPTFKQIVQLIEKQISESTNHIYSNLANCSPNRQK
Test [3] concerns the target T1, TrkA kinase (Homo sapiens, UniProt P04629).
T1 construct: purchased Upstate Biotech #14-571
Kind of test: TrkA biochemical assay (AlphaScreen). Conditions: 100 μM ATP.

The subject of test [4] is cells with activating c-kit mutations. Particulars: mutations in the catalytic region; cited from earlier work.

SMILES strings stand for the structures.

T1 sequence (P04629 33-796): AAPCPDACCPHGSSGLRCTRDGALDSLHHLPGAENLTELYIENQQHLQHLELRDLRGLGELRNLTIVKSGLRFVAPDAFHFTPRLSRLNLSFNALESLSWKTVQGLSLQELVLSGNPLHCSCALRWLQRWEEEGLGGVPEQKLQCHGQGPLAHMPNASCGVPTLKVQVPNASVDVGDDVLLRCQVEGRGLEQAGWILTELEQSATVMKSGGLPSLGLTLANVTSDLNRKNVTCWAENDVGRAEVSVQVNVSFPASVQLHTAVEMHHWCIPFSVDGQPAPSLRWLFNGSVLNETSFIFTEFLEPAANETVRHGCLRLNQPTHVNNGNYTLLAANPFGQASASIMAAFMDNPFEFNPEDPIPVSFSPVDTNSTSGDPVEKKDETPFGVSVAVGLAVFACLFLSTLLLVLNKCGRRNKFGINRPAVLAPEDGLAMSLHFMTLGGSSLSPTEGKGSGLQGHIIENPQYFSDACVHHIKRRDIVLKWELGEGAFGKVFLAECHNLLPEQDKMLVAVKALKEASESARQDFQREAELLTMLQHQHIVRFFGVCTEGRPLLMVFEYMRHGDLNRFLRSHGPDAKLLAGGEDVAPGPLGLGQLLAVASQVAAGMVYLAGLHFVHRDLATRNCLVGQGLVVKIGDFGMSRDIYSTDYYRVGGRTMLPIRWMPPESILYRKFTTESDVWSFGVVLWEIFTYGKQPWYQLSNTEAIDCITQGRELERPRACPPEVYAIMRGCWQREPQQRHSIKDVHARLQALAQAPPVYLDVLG
Sequence of MAP4K4 (HGK) (O95819 whole entry): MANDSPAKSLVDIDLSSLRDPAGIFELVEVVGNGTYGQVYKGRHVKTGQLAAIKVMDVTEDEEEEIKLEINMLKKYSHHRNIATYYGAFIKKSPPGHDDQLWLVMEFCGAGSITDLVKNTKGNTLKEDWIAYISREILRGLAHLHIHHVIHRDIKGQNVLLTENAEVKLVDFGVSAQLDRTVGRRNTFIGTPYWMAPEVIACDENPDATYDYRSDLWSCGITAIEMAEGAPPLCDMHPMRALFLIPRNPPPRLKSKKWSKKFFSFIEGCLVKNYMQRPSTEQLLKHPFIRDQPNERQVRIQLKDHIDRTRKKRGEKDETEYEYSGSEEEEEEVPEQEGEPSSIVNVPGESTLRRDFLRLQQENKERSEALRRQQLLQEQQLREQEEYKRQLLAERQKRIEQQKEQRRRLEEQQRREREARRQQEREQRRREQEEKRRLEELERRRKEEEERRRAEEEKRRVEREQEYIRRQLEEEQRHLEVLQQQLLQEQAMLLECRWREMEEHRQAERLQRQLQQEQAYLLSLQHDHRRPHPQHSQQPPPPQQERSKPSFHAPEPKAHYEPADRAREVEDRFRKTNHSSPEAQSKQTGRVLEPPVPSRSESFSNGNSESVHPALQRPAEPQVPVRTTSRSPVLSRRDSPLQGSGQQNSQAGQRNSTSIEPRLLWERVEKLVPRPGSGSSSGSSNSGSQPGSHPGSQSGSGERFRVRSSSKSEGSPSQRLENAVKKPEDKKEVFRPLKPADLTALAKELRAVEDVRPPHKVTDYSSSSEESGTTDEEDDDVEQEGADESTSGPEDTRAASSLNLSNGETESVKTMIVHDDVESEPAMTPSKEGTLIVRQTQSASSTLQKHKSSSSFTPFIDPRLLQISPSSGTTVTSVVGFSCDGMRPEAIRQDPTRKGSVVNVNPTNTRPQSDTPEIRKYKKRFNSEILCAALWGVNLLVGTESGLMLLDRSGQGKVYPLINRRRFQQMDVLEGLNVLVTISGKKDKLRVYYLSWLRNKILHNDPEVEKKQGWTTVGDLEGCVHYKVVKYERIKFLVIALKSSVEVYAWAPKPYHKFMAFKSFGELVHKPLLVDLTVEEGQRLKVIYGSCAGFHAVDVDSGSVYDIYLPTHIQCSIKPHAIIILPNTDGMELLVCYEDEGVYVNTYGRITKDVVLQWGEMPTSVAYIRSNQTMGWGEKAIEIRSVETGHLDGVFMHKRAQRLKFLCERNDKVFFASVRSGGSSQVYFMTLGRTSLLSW

By IC50 is commonly meant the concentration that inhibits the measured activity by half. Read a high IC50 as a need for much substance. On to `Fc1ccc(CNc2nc(Cl)c(Cc3c[nH]c4ncccc34)s2)cc1` [P-0156, [4-Chloro-5-(1H-pyrrolo[2,3-b]pyridin-3-ylmethyl)-thiazol-2-yl]-(4-fluoro-benzyl)-amine], for which the IC50 in test [1] and in test [2] was less than 1000 nM in each case.

For the compound `Cc1nn(C(=O)NCCc2ccc(F)cc2)c(C)c1Cc1c[nH]c2ncc(Cl)cc12` [P-0157, 4-(5-Chloro-1H-pyrrolo[2,3-b]pyridin-3-ylmethyl)-3,5-dimethyl-pyrazole-1-carboxylic acid [2-(4-fluoro-phenyl)-ethyl]-amide], the IC50 in test [3] and in test [2] was less than 1000 nM each time.

For the compound `Cc1cccc(CNc2nc(Cl)c(Cc3c[nH]c4ncccc34)s2)n1` [P-0171, [4-Chloro-5-(1H-pyrrolo[2,3-b]pyridin-3-ylmethyl)-thiazol-2-yl]-(6-methyl-pyridin-2-ylmethyl)-amine], the IC50 in test [3] and in test [2] was less than 1000 nM throughout.

On to `O=C(c1cnc(NCc2ccc(F)cc2)s1)c1c[nH]c2ncccc12` [P-0177, [2-(4-fluoro-benzylamino)-thiazol-5-yl]-(1H-pyrrolo[2,3-b]pyridin-3-yl)-methanone], for which the 50% inhibitory concentration (IC50) in test [1] and in test [2] was less than 1000 nM throughout.

Turning to `Cn1cc(-c2cnc3[nH]cc(Cc4ccc(NCc5ccc(C(F)(F)F)nc5)nc4Cl)c3c2)cn1` [P-0179, {6-Chloro-5-[5-(1-methyl-1H-pyrazol-4-yl)-1H-pyrrolo[2,3-b]pyridin-3-ylmethyl]-pyridin-2-yl}-(6-trifluoromethyl-pyridin-3-ylmethyl)-amine], the IC50 in test [3], in test [1] and in test [2] was less than 1000 nM each time.

In the case of `Cn1cc(-c2cnc3[nH]cc(Cc4cc(NCc5ccc(F)cc5)nn4C)c3c2)cn1` [P-0180, (4-Fluoro-benzyl)-{1-methyl-5-[5-(1-methyl-1H-pyrazol-4-yl)-1H-pyrrolo[2,3-b]pyridin-3-ylmethyl]-1H-pyrazol-3-yl}-amine], the concentration for half-maximal inhibition (IC50) in test [3] and in test [2] was less than 1000 nM in each case.

With `Fc1ccc(CNc2nc(Cl)c(Cc3c[nH]c4ncc(Cl)cc34)s2)cc1` [P-0195, [4-Chloro-5-(5-chloro-1H-pyrrolo[2,3-b]pyridin-3-ylmethyl)-thiazol-2-yl]-(4-fluoro-benzyl)-amine], the IC50 in test [1] and in test [2] was less than 1000 nM in each case.

As to `Cc1nc(CNc2nc(Cl)c(Cc3c[nH]c4ncc(Cl)cc34)s2)cs1` [P-0201, [4-Chloro-5-(5-chloro-1H-pyrrolo[2,3-b]pyridin-3-ylmethyl)-thiazol-2-yl]-(2-methyl-thiazol-4-ylmethyl)-amine], the 50% inhibitory concentration (IC50) in test [1] and in test [2] was less than 1000 nM each time.

For `Clc1ccc(CNc2nc(Cl)c(Cc3c[nH]c4ncc(Cl)cc34)s2)nc1` [P-0203, [4-Chloro-5-(5-chloro-1H-pyrrolo[2,3-b]pyridin-3-ylmethyl)-thiazol-2-yl]-(5-chloro-pyridin-2-ylmethyl)-amine], the half-inhibitory concentration (IC50) in test [1] and in test [2] was less than 1000 nM in each case.

As for `Fc1ccc(CNc2nc(Cl)c(Cc3c[nH]c4ncccc34)s2)nc1` [P-0206, [4-Chloro-5-(1H-pyrrolo[2,3-b]pyridin-3-ylmethyl)-thiazol-2-yl]-(5-fluoro-pyridin-2-ylmethyl)-amine], the IC50 in test [1] and in test [2] was less than 1000 nM each time.

`COc1cncc(CNc2nc(Cl)c(Cc3c[nH]c4ncccc34)s2)c1` [P-0207, [4-Chloro-5-(1H-pyrrolo[2,3-b]pyridin-3-ylmethyl)-thiazol-2-yl]-(5-methoxy-pyridin-3-ylmethyl)-amine] had a half-inhibitory concentration (IC50) in test [1] of less than 1000 nM.

Regarding `Fc1cncc(CNc2nc(Cl)c(Cc3c[nH]c4ncc(Cl)cc34)s2)c1` [P-0231, [4-Chloro-5-(5-chloro-1H-pyrrolo[2,3-b]pyridin-3-ylmethyl)-thiazol-2-yl]-(5-fluoro-pyridin-3-ylmethyl)-amine], in test [1], the IC50 is less than 1000 nM.

As to `Fc1ccc(CNc2nc(Cl)c(Cc3c[nH]c4ncc(Cl)cc34)s2)nc1` [P-0240, [4-Chloro-5-(5-chloro-1H-pyrrolo[2,3-b]pyridin-3-ylmethyl)-thiazol-2-yl]-(5-fluoro-pyridin-2-ylmethyl)-amine], the concentration for half-maximal inhibition (IC50) in test [1] and in test [2] was less than 1000 nM throughout.

In test [1], `COc1cncc(CNc2nc(Cl)c(Cc3c[nH]c4ncc(Cl)cc34)s2)c1` [P-0241, [4-Chloro-5-(5-chloro-1H-pyrrolo[2,3-b]pyridin-3-ylmethyl)-thiazol-2-yl]-(5-methoxy-pyridin-3-ylmethyl)-amine] showed an IC50 of less than 1000 nM.

Regarding `Cc1cccc(CNc2nc(Cl)c(Cc3c[nH]c4ncc(Cl)cc34)s2)n1` [P-0255, [4-Chloro-5-(5-chloro-1H-pyrrolo[2,3-b]pyridin-3-ylmethyl)-thiazol-2-yl]-(6-methyl-pyridin-2-ylmethyl)-amine], the IC50 in test [1] and in test [2] was less than 1000 nM in each case.

As for `FC(F)(F)Oc1ccccc1CNc1ncc(Cc2c[nH]c3ncccc23)cn1` [P-0303, [5-(1H-Pyrrolo[2,3-b]pyridin-3-ylmethyl)-pyrimidin-2-yl]-(2-trifluoromethoxy-benzyl)-amine], the 50% inhibitory concentration (IC50) in test [3] and in test [2] was less than 1000 nM in each case.

As to `Fc1cncc(CNc2ccc(Cc3c[nH]c4ncc(Cl)cc34)cn2)c1` [P-0324, [5-(5-chloro-1H-pyrrolo[2,3-b]pyridin-3-ylmethyl)-pyridin-2-yl]-(5-fluoro-pyridin-3-ylmethyl)-amine], the half-maximal inhibitory concentration (IC50) in test [1] and in test [2] was less than 1000 nM each time.

Consider `Cc1cnc2[nH]cc(Cc3ccc(NCc4c(F)cccc4F)nc3)c2c1` [P-0341, (2,6-Difluoro-benzyl)-[5-(5-methyl-1H-pyrrolo[2,3-b]pyridin-3-ylmethyl)-pyridin-2-yl]-amine], for which the IC50 in test [1] and in test [2] was less than 1000 nM in each case.

In test [2], `Fc1cc(C(F)(F)F)ccc1CNc1ncc(Cc2c[nH]c3ncc(Cl)cc23)cn1` [P-0394, [5-(5-Chloro-1H-pyrrolo[2,3-b]pyridin-3-ylmethyl)-pyrimidin-2-yl]-(2-fluoro-4-trifluoromethyl-benzyl)-amine] returned an IC50 of less than 1000 nM.

In test [2], `Fc1cccc(CNc2ncc(Cc3c[nH]c4ncc(Cl)cc34)cn2)c1F` [P-0395, [5-(5-Chloro-1H-pyrrolo[2,3-b]pyridin-3-ylmethyl)-pyrimidin-2-yl]-(2,3-difluoro-benzyl)-amine] came in with an IC50 of less than 1000 nM.

`Fc1ccc(CNc2ncc(Cc3c[nH]c4ncc(Cl)cc34)cn2)c(Cl)c1` [P-0396, (2-Chloro-4-fluoro-benzyl)-[5-(5-chloro-1H-pyrrolo[2,3-b]pyridin-3-ylmethyl)-pyrimidin-2-yl]-amine] returned an IC50 in test [2] of less than 1000 nM.

`FC(F)(F)Oc1ccccc1CNc1ncc(Cc2c[nH]c3ncc(Cl)cc23)cn1` [P-0402, [5-(5-Chloro-1H-pyrrolo[2,3-b]pyridin-3-ylmethyl)-pyrimidin-2-yl]-(2-trifluoromethoxy-benzyl)-amine] yielded an IC50 in test [2] of less than 1000 nM.

For the compound `O=C(c1ccc(NCc2ccccc2F)nc1)c1c[nH]c2ncccc12` [P-0403, [6-(2-fluoro-benzylamino)-pyridin-3-yl]-(1H-pyrrolo[2,3-b]pyridin-3-yl)-methanone], in test [1], the IC50 was less than 1000 nM.

As to `O=C(c1ccc(NCc2ccccc2F)nc1)c1c[nH]c2ncc(Cl)cc12` [P-0404, (5-chloro-1H-pyrrolo[2,3-b]pyridin-3-yl)-[6-(2-fluoro-benzylamino)-pyridin-3-yl]-methanone], in test [2], the concentration for half-maximal inhibition (IC50) is less than 1000 nM.

In test [2], `Fc1ccc(Cl)c(CNc2ncc(Cc3c[nH]c4ncccc34)cn2)c1` [P-0407, (2-Chloro-5-fluoro-benzyl)-[5-(1H-pyrrolo[2,3-b]pyridin-3-ylmethyl)-pyrimidin-2-yl]-amine] registered an IC50 of less than 1000 nM.

Consider `Fc1ccc(Cl)c(CNc2ncc(Cc3c[nH]c4ncc(Cl)cc34)cn2)c1` [P-0408, (2-Chloro-5-fluoro-benzyl)-[5-(5-chloro-1H-pyrrolo[2,3-b]pyridin-3-ylmethyl)-pyrimidin-2-yl]-amine], for which, in test [2], the 50% inhibitory concentration (IC50) is less than 1000 nM.

Compound `FC(F)(F)COc1ccc(CNc2ccc(Cc3c[nH]c4ncc(Cl)cc34)cn2)cn1` [P-0409, [5-(5-Chloro-1H-pyrrolo[2,3-b]pyridin-3-ylmethyl)-pyridin-2-yl]-[6-(2,2,2-trifluoro-ethoxy)-pyridin-3-ylmethyl]-amine] yielded an IC50 in test [2] of less than 1000 nM.

As for `O=C(Nc1cccc(F)c1)Nc1ccc(Cc2c[nH]c3ncccc23)cn1` [P-0412, 1-(3-fluoro-phenyl)-3-[5-(1H-pyrrolo[2,3-b]pyridin-3-ylmethyl)-pyridin-2-yl]-urea], the half-inhibitory concentration (IC50) in test [3] and in test [2] was less than 1000 nM in each case.

Turning to `Cc1ccc(NC(=O)c2ccc(CN3CCN(C)CC3)cc2)cc1Nc1nccc(-c2cccnc2)n1` [STI571], the “inhibition of cells with c-kit mutations” value in test [4] was “did not inhibit the cells”.

Source of the values: US9487515B2, “Compounds modulating c-fms and/or c-kit activity and uses therefor” (Plexxikon Inc., priority 2006, dated 2016).
